ChEMBL document CHEMBL1201862, “PubChem BioAssay data set” (2004)
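All cell lines were grown in 96-well plates and treated with compound for 48 hours. The concentration for 50% growth inhibition is given as GI50.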 Activity calls are given as the source filed them. Cut-off read from the data, not from the text of the source: active = GI50 up to about 1.1 µM and inactive = higher.

What was measured:
Assay in all cases: NCI anticancer screen, dose series, 48 h
[1] = test system: COLO 205
[2] = test system: BT-549
[3] = test system: UACC-62
[4] = test system: HL-60
[5] = test system: SF-268
[6] = test system: TK-10
[7] = test system: ACHN
[8] = test system: SN12C
[9] = test system: NCI-H226
[10] = test system: CAKI-1
[11] = test system: NCI-H23
[12] = test system: A549
[13] = test system: RPMI-8226
[14] = test system: OVCAR-3
[15] = test system: SW-620
[16] = test system: SNB-75
[17] = test system: MDA-MB-231
[18] = test system: CCRF-CEM
[19] = test system: HT-29
[20] = test system: MDA-MB-435

SMILES | GI50 [1] | GI50 [2] | GI50 [3] | GI50 [4] | GI50 [5] | GI50 [6] | GI50 [7] | GI50 [8] | GI50 [9] | GI50 [10] | GI50 [11] | GI50 [12] | GI50 [13] | GI50 [14] | GI50 [15] | GI50 [16] | GI50 [17] | GI50 [18] | GI50 [19] | GI50 [20]
O=C(O)CSc1ccn(Cc2ccccc2)c1 | > 100 µM (inactive) | > 100 µM (inactive) | > 100 µM (inactive) | > 100 µM (inactive) | > 100 µM (inactive) | > 100 µM (inactive) | > 100 µM (inactive) | > 100 µM (inactive) | > 100 µM (inactive) | > 100 µM (inactive) | > 100 µM (inactive) | > 100 µM (inactive) | > 100 µM (inactive) | > 100 µM (inactive) | > 100 µM (inactive) | > 100 µM (inactive) | > 100 µM (inactive) | > 100 µM (inactive) | > 100 µM (inactive) | > 100 µM (inactive)
Nc1ccn(C2CCC(COP(=O)(O)OCC(O)COP(=O)(O)OCC3OC(n4cc(F)c(=O)[nH]c4=O)CC3O)O2)c(=O)n1 (stereo not given) | 8.3 µM (inactive) | 3.09 µM (inactive) | 0.136 µM (active) | 0.0716 µM (active) | 0.0101 µM (active) | 5.14 µM (inactive) | < 0.0106 µM (active) | 0.135 µM (active) | > 100 µM (inactive) | 0.316 µM (active) | 0.139 µM (active) | 0.386 µM (active) | 10.4 µM (inactive) | 23.2 µM (inactive) | > 100 µM (inactive) | 3.54 µM (inactive) | 44.1 µM (inactive) | 0.124 µM (active) | 2.79 µM (inactive) | 14.8 µM (inactive)
CC(C)C(Nc1ncnc2nc[nH]c12)C(=O)O (stereo not given) | > 100 µM (inactive) | > 100 µM (inactive) | > 100 µM (inactive) | > 100 µM (inactive) | > 100 µM (inactive) | > 100 µM (inactive) | > 100 µM (inactive) | > 100 µM (inactive) | > 100 µM (inactive) | > 100 µM (inactive) | > 100 µM (inactive) | > 100 µM (inactive) | > 100 µM (inactive) | > 100 µM (inactive) | > 100 µM (inactive) | > 100 µM (inactive) | > 100 µM (inactive) | > 100 µM (inactive) | > 100 µM (inactive) | > 100 µM (inactive)
CCOC(=O)/C=C(\C(=O)OCC)n1ccc(=O)n(Cc2cn(COCCOC(C)=O)nn2)c1=O | 7.94 µM (inactive) | 17.8 µM (inactive) | 18.8 µM (inactive) | 12.7 µM (inactive) | 26.1 µM (inactive) | 15.2 µM (inactive) | 7.05 µM (inactive) | 20.7 µM (inactive) | 7.67 µM (inactive) | 8.67 µM (inactive) | 17.7 µM (inactive) | > 76.4 µM (inactive) | 22.8 µM (inactive) | 23.2 µM (inactive) | 9.18 µM (inactive) | > 42.7 µM (inactive) | 20.2 µM (inactive) | 2.83 µM (inactive) | 16.2 µM (inactive) | 18.7 µM (inactive)
Cn1c2ccccc2c2c(=O)[nH]c(=O)[nH]c21 | > 100 µM (inactive) | > 100 µM (inactive) | > 100 µM (inactive) | > 100 µM (inactive) | > 100 µM (inactive) | > 100 µM (inactive) | > 100 µM (inactive) | > 100 µM (inactive) | > 100 µM (inactive) | > 100 µM (inactive) | > 100 µM (inactive) | > 100 µM (inactive) | > 100 µM (inactive) | > 100 µM (inactive) | > 100 µM (inactive) | 82.4 µM (inactive) | > 100 µM (inactive) | > 100 µM (inactive) | > 100 µM (inactive) | > 100 µM (inactive)
CCCCc1ccc(Nc2nc(OC)c3ncn(C4CC(O)C(CO)O4)c3n2)cc1 (stereo not given) | 14.2 µM (inactive) | 18.9 µM (inactive) | 17 µM (inactive) | 2.05 µM (inactive) | 16.6 µM (inactive) | 23.4 µM (inactive) | 16.4 µM (inactive) | 13.3 µM (inactive) | 19.4 µM (inactive) | 1.85 µM (inactive) | 18 µM (inactive) | 16.8 µM (inactive) | 27.2 µM (inactive) | 22.4 µM (inactive) | 19.7 µM (inactive) | 18 µM (inactive) | 17.7 µM (inactive) | 17.5 µM (inactive) | 19.2 µM (inactive) | 17.7 µM (inactive)
COC(=O)CN1c2nc(C#N)c(C#N)nc2N(CC(=O)OC)c2nc(C#N)c(C#N)nc21 | 1.26 µM (inactive) | 4.78 µM (inactive) | 5.45 µM (inactive) | 2.26 µM (inactive) | 4.05 µM (inactive) | 2.5 µM (inactive) | 1.59 µM (inactive) | 3.34 µM (inactive) | 38.8 µM (inactive) | 0.54 µM (active) | 2.99 µM (inactive) | 12 µM (inactive) | 1.87 µM (inactive) | 2.92 µM (inactive) | 1.76 µM (inactive) | 14 µM (inactive) | 6.73 µM (inactive) | 1.01 µM (active) | 3.02 µM (inactive) | 2.64 µM (inactive)
CC(=O)CC(=O)N1CCOC1=O | > 10 µM (inactive) | > 10 µM (inactive) | > 10 µM (inactive) | > 10 µM (inactive) | > 10 µM (inactive) | > 10 µM (inactive) | > 10 µM (inactive) | > 10 µM (inactive) | > 10 µM (inactive) | > 10 µM (inactive) | > 10 µM (inactive) | > 10 µM (inactive) | > 10 µM (inactive) | > 10 µM (inactive) | > 10 µM (inactive) | 5.26 µM (inactive) | > 10 µM (inactive) | > 10 µM (inactive) | > 10 µM (inactive) | > 10 µM (inactive)
N=C1N=C(N)c2cc3c(cc21)SCCSCCCSCCS3 | 12 µM (inactive) | 14.1 µM (inactive) | 22 µM (inactive) | 3.77 µM (inactive) | 12.8 µM (inactive) | 15.1 µM (inactive) | 12.9 µM (inactive) | 14.6 µM (inactive) | 20.5 µM (inactive) | 42.4 µM (inactive) | 11.3 µM (inactive) | 18.7 µM (inactive) | > 10 µM (inactive) | 11.8 µM (inactive) | 11.6 µM (inactive) | 14.8 µM (inactive) | 16 µM (inactive) | 3.95 µM (inactive) | 11.2 µM (inactive) | 11.1 µM (inactive)
COc1cccc(C2SCC(=O)N2c2ccc(-c3ccc(-n4c(-c5ccccc5)nc5ccccc5c4=O)cc3)cc2)c1OC (stereo not given) | > 100 µM (inactive) | 42 µM (inactive) | 29 µM (inactive) | 73.8 µM (inactive) | 71.8 µM (inactive) | > 100 µM (inactive) | > 100 µM (inactive) | > 100 µM (inactive) | 74.1 µM (inactive) | 67.8 µM (inactive) | > 100 µM (inactive) | 83.8 µM (inactive) | > 100 µM (inactive) | > 100 µM (inactive) | > 10 µM (inactive) | 22 µM (inactive) | > 100 µM (inactive) | 67.1 µM (inactive) | 68.4 µM (inactive) | 53.5 µM (inactive)
C[Si](C)(C)C1=C([Si](C)(C)C)C(Cl)(Cl)C1=O | 2.04 µM (inactive) | 3.63 µM (inactive) | 2.38 µM (inactive) | 0.217 µM (active) | 5.94 µM (inactive) | 1.68 µM (inactive) | 1.74 µM (inactive) | 3.31 µM (inactive) | 3.13 µM (inactive) | 2.36 µM (inactive) | 4.26 µM (inactive) | 19.8 µM (inactive) | 0.8 µM (active) | 2.18 µM (inactive) | 2.27 µM (inactive) | 8.77 µM (inactive) | 2.8 µM (inactive) | 0.232 µM (active) | 3.11 µM (inactive) | 2 µM (inactive)
COc1ccc2nc3ccccc3c(NCCN(C)CCCl)c2c1 | 0.299 µM (active) | 0.9 µM (active) | 0.681 µM (active) | 0.259 µM (active) | 0.55 µM (active) | 1.62 µM (inactive) | 0.24 µM (active) | 0.319 µM (active) | 0.608 µM (active) | 0.205 µM (active) | 0.604 µM (active) | 0.479 µM (active) | 0.247 µM (active) | 0.736 µM (active) | 0.175 µM (active) | 1.04 µM (active) | 1.15 µM (inactive) | 0.353 µM (active) | 0.377 µM (active) | 0.364 µM (active)
COC(=O)c1ccccc1/C=C1/Cc2cccc(C)c2C1=O | > 100 µM (inactive) | 93.8 µM (inactive) | 52.2 µM (inactive) | > 100 µM (inactive) | 73.1 µM (inactive) | > 100 µM (inactive) | 57.5 µM (inactive) | > 100 µM (inactive) | > 100 µM (inactive) | 69.3 µM (inactive) | > 100 µM (inactive) | > 100 µM (inactive) | > 100 µM (inactive) | > 100 µM (inactive) | > 100 µM (inactive) | 35.4 µM (inactive) | > 100 µM (inactive) | > 100 µM (inactive) | > 100 µM (inactive) | > 100 µM (inactive)
CCC1(O)C(=O)OCc2c1cc1n(c2=O)Cc2cc3ccc(C=O)cc3nc2-1 (stereo not given) | 9.08 µM (inactive) | 2.28 µM (inactive) | 0.566 µM (active) | 1.36 µM (inactive) | 0.321 µM (active) | 54.3 µM (inactive) | 0.713 µM (active) | 0.387 µM (active) | 1.58 µM (inactive) | 1.73 µM (inactive) | 2.07 µM (inactive) | 2.13 µM (inactive) | 2.79 µM (inactive) | 4.51 µM (inactive) | 1.03 µM (active) | 1.36 µM (inactive) | 22.4 µM (inactive) | 0.0431 µM (active) | 4.9 µM (inactive) | 7.18 µM (inactive)
